Measurements published in patent publication US12295936B2, “Immunomodulating urea azalides” (Zoetis Services LLC, priority 2020, dated 2025).

Tests used:
IL-1β = assay: LPS-stimulated whole bovine blood assay, MSD cytokine detection; format: cell-based; conditions: overstimulation of IL-1β, LPS-stimulated bovine whole blood
TNF-α = assay: as above; format: cell-based; conditions: Bos taurus, LPS-stimulated bovine whole blood; read-out: TNF-α (IC50 μM)
P. multocida 46572 = assay: In vivo mouse lung infection challenge model (murine efficacy); design: species or system CD-1 female mice; conditions: 20 mg/kg subcutaneous, P. multocida challenge; harmonized against the comparative vehicle survival rate
Description: The challenge organism was P. multocida 46572. Target challenge concentration was 5×10^2 CFU/mouse. Isolated colonies from overnight growth (37° C. with 5% CO2) on trypticase soy agar (TSA II) blood plates were transferred to room temperature Brain Heart Infusion Broth (BHIB). The broth culture was incubated 3.5-4 hours to approximately mid-log phase of growth, as measured by forward light scatter at 600 nm (OD600, 0.200). The culture was centrifuged to collect the bacterial pellet. The pellet was re-suspended in BHIB and adjusted to provide an approximate concentration of 2.7 log^10 colony forming units (CFU) in 0.04 mL at the highest concentration. The challenge inoculum concentration was confirmed by serial dilutions of the inoculum for CFU enumeration. On Day −5, CD-1 female mice were received. Mice were given standard rodent diet and water ad libitum. On Day 0, bacterial inoculum (0.04 mL) was administered to each mouse (n=36) intranasally. Compounds of the invention were dosed at 20 mg/kg (0.1 mL) in a buffered (˜pH 5.4) propylene glycol, monothioglycerol and water solution by subcutaneous injection. Animals were observed from Days 1-10. The study was terminated on Day 10. In addition, some treatment groups were sampled at 6, 24, and 48 hours post bacterial challenge for RNA sequence analysis of lung tissue.
The murine efficacy model (P. multocida challenge) was optimized, and the treatment group size was powered to be able to observe statistically significant improvement of survival to expected ranges for immunomodulatory compounds. The experimental design was a randomized complete block design. Mice were individually identified and treatment groups comingled within a cage, with every treatment group equally represented across cages. Mortality was the primary variable. Mortality data was analyzed using a generalized mixed model with fixed effect of treatment and random effect of block. Survival time was also analyzed using the SAS PHREG (survival analysis) procedure to examine whether there were significant differences between treatment groups and the control group. Numerous compounds of the invention and M9 (positive control) were tested in this model at a dose of 20 mg/kg. Typical percent survival for no treatment control is in the range of 0-20% based on study to study variation in challenge inoculum and rate of infection. […] Mouse survival for M9 was about 90-100%, further supporting its antibacterial properties against the bacterial strain (Table 3). Survival values presented are harmonized against the comparative vehicle survival rate.

[1] = system: BRD pathogens, M. haemolytica and P. multocida; assay: MIC screening panel of BRD pathogens (antibacterial / non-antibacterial); conditions: read-out: antibacterial / non-antibacterial (MIC for the BRD pathogens)

| SMILES | IL-1β OS of LPS (IL-1β) | IC50 (TNF-α) | Mouse Murine Percent Survival (P. multocida 46572) | MIC [1] |
| --- | --- | --- | --- | --- |
| CC[C@H]1OC(=O)[C@H](C)[C@@H](O[C@H]2C[C@@](C)(OC)[C@@H](O)[C@H](C)O2)[C@H](C)[C@@H](O[C@@H]2O[C@H](C)C[C@H](N(C)C(=O)Nc3ccccc3)[C@H]2O)[C@](C)(O)C[C@@H](C)CN(C)[C@H](C)[C@@H](O)[C@]1(C)O [Example B-4, 1-((2S,3R,4S,6R)-2-(((2R,3S,4R,5R,8R,10R,11R,12S,13S,14R)-2-ethyl-3,4,10-trihydroxy-13-(((2R,4R,5S,6S)-5-hydroxy-4-methoxy-4,6-dimethyltetrahydro-2H-pyran-2-yl)oxy)-3,5,6,8,10,12,14-heptamethyl-15-oxo-1-oxa-6-azacyclopentadecan-11-yl)oxy)-3-hydroxy-6-methyltetrahydro-2H-pyran-4-yl)-1-methyl-3-phenylurea] | 80 µM | 45 µM | 7% |  |
| CC[C@H]1OC(=O)[C@H](C)[C@@H](O[C@H]2C[C@@](C)(OC)[C@@H](O)[C@H](C)O2)[C@H](C)[C@@H](O[C@@H]2O[C@H](C)C[C@H](N(C)C(=O)N(C)c3ccccc3)[C@H]2O)[C@](C)(O)C[C@@H](C)CN(C)[C@H](C)[C@@H](O)[C@]1(C)O [Example B-5, 1-((2S,3R,4S,6R)-2-(((2R,3S,4R,5R,8R,10R,11R,12S,13S,14R)-2-ethyl-3,4,10-trihydroxy-13-(((2R,4R,5S,6S)-5-hydroxy-4-methoxy-4,6-dimethyltetrahydro-2H-pyran-2-yl)oxy)-3,5,6,8,10,12,14-heptamethyl-15-oxo-1-oxa-6-azacyclopentadecan-11-yl)oxy)-3-hydroxy-6-methyltetrahydro-2H-pyran-4-yl)-1,3-dimethyl-3-phenylurea] |  |  | <1% |  |
| CC[C@H]1OC(=O)[C@H](C)[C@@H](O[C@H]2C[C@@](C)(OC)[C@](C)(O)[C@H](C)O2)[C@H](C)[C@@H](O[C@@H]2O[C@H](C)C[C@H](N(C)C(=O)N(C)c3ccc(C(F)(F)F)cc3)[C@H]2O)[C@](C)(O)C[C@@H](C)CN[C@H](C)[C@@H](O)[C@]1(C)O [Example B-13a, 1-((2S,3R,4S,6R)-2-(((2R,3S,4R,5R,8R,10R,11R,12S,13S,14R)-2-ethyl-3,4,10-trihydroxy-13-(((2R,4R,5R,6S)-5-hydroxy-4-methoxy-4,5,6-trimethyltetrahydro-2H-pyran-2-yl)oxy)-3,5,8,10,12,14-hexamethyl-15-oxo-1-oxa-6-azacyclopentadecan-11-yl)oxy)-3-hydroxy-6-methyltetrahydro-2H-pyran-4-yl)-1,3-dimethyl-3-(4-(trifluoromethyl)phenyl)urea] | 16 µM | 20 µM | 44% |  |
| CC[C@H]1OC(=O)[C@H](C)[C@@H](O[C@H]2C[C@@](C)(OC)[C@](O)(CNCCN(C)C)[C@H](C)O2)[C@H](C)[C@@H](O[C@@H]2O[C@H](C)C[C@H](N(C)C(=O)Nc3ccccc3)[C@H]2O)[C@](C)(O)C[C@@H](C)CN[C@H](C)[C@@H](O)[C@]1(C)O [Example H-3, 1-((2S,3R,4S,6R)-2-(((2R,3S,4R,5R,8R,10R,11R,12S,13S,14R)-13-(((2R,4R,5S,6S)-5-(((2-(dimethylamino)ethyl)amino)methyl)-5-hydroxy-4-methoxy-4,6-dimethyltetrahydro-2H-pyran-2-yl)oxy)-2-ethyl-3,4,10-trihydroxy-3,5,8,10,12,14-hexamethyl-15-oxo-1-oxa-6-azacyclopentadecan-11-yl)oxy)-3-hydroxy-6-methyltetrahydro-2H-pyran-4-yl)-1-methyl-3-phenylurea] | >500 µM | 400 µM | 8% |  |
| CCCNC[C@]1(O)[C@H](C)O[C@@H](O[C@H]2[C@H](C)[C@@H](O[C@@H]3O[C@H](C)C[C@H](N(C)C(=O)N(c4ccccc4)C4CC4)[C@H]3O)[C@](C)(O)C[C@@H](C)CN[C@H](C)[C@@H](O)[C@](C)(O)[C@@H](CC)OC(=O)[C@@H]2C)C[C@@]1(C)OC [Example H-14, 1-cyclopropyl-3-((2S,3R,4S,6R)-2-(((2R,3S,4R,5R,8R,10R,11R,12S,13S,14R)-2-ethyl-3,4,10-trihydroxy-13-(((2R,4R,5S,6S)-5-hydroxy-4-methoxy-4,6-dimethyl-5-((propylamino)methyl)tetrahydro-2H-pyran-2-yl)oxy)-3,5,8,10,12,14-hexamethyl-15-oxo-1-oxa-6-azacyclopentadecan-11-yl)oxy)-3-hydroxy-6-methyltetrahydro-2H-pyran-4-yl)-3-methyl-1-phenylurea] |  |  | 46% | > 64 µg/mL |
| CCCNC[C@]1(O)[C@H](C)O[C@@H](O[C@H]2[C@H](C)[C@@H](O[C@@H]3O[C@H](C)C[C@H](N(C)C(=O)Nc4ccncc4)[C@H]3O)[C@](C)(O)C[C@@H](C)CN[C@H](C)[C@@H](O)[C@](C)(O)[C@@H](CC)OC(=O)[C@@H]2C)C[C@@]1(C)OC [Example H-73, 1-((2S,3R,4S,6R)-2-(((2R,3S,4R,5R,8R,10R,11R,12S,13S,14R)-2-ethyl-3,4,10-trihydroxy-13-(((2R,4R,5S,6S)-5-hydroxy-4-methoxy-4,6-dimethyl-5-((propylamino)methyl)tetrahydro-2H-pyran-2-yl)oxy)-3,5,8,10,12,14-hexamethyl-15-oxo-1-oxa-6-azacyclopentadecan-11-yl)oxy)-3-hydroxy-6-methyltetrahydro-2H-pyran-4-yl)-1-methyl-3-(pyridin-4-yl)urea] | >500 µM | > 500 µM | 4% |  |
| CCCNC[C@]1(O)[C@H](C)O[C@@H](O[C@H]2[C@H](C)[C@@H](O[C@@H]3O[C@H](C)C[C@H](N(C)C(=O)Nc4ccc(F)cc4)[C@H]3O)[C@](C)(O)C[C@@H](C)CN[C@H](C)[C@@H](O)[C@](C)(O)[C@@H](CC)OC(=O)[C@@H]2C)C[C@@]1(C)OC [Example H-83, 1-((2S,3R,4S,6R)-2-(((2R,3S,4R,5R,8R,10R,11R,12S,13S,14R)-2-ethyl-3,4,10-trihydroxy-13-(((2R,4R,5S,6S)-5-hydroxy-4-methoxy-4,6-dimethyl-5-((propylamino)methyl)tetrahydro-2H-pyran-2-yl)oxy)-3,5,8,10,12,14-hexamethyl-15-oxo-1-oxa-6-azacyclopentadecan-11-yl)oxy)-3-hydroxy-6-methyltetrahydro-2H-pyran-4-yl)-3-(4-fluorophenyl)-1-methylurea] | 80 µM | 350 µM | 11% | > 64 µg/mL |
| CCCNC[C@]1(O)[C@H](C)O[C@@H](O[C@H]2[C@H](C)[C@@H](O[C@@H]3O[C@H](C)C[C@H](N(C)C(=O)Nc4ccc(OC)cc4)[C@H]3O)[C@](C)(O)C[C@@H](C)CN[C@H](C)[C@@H](O)[C@](C)(O)[C@@H](CC)OC(=O)[C@@H]2C)C[C@@]1(C)OC [Example H-87, 1-((2S,3R,4S,6R)-2-(((2R,3S,4R,5R,8R,10R,11R,12S,13S,14R)-2-ethyl-3,4,10-trihydroxy-13-(((2R,4R,5S,6S)-5-hydroxy-4-methoxy-4,6-dimethyl-5-((propylamino)methyl)tetrahydro-2H-pyran-2-yl)oxy)-3,5,8,10,12,14-hexamethyl-15-oxo-1-oxa-6-azacyclopentadecan-11-yl)oxy)-3-hydroxy-6-methyltetrahydro-2H-pyran-4-yl)-3-(4-methoxyphenyl)-1-methylurea] | 500 µM | 100 µM | 14% |  |
| CCCNC[C@]1(O)[C@H](C)O[C@@H](O[C@H]2[C@H](C)[C@@H](O[C@@H]3O[C@H](C)C[C@H](N(C)C(N)=O)[C@H]3O)[C@](C)(O)C[C@@H](C)CN[C@H](C)[C@@H](O)[C@](C)(O)[C@@H](CC)OC(=O)[C@@H]2C)C[C@@]1(C)OC [Example H-96, 1-((2S,3R,4S,6R)-2-(((2R,3S,4R,5R,8R,10R,11R,12S,13S,14R)-2-ethyl-3,4,10-trihydroxy-13-(((2R,4R,5S,6S)-5-hydroxy-4-methoxy-4,6-dimethyl-5-((propylamino)methyl)tetrahydro-2H-pyran-2-yl)oxy)-3,5,8,10,12,14-hexamethyl-15-oxo-1-oxa-6-azacyclopentadecan-11-yl)oxy)-3-hydroxy-6-methyltetrahydro-2H-pyran-4-yl)-1-methylurea] |  |  | 11% | > 64 µg/mL |
